Measured values published in ChEMBL document CHEMBL1152040, “The stereochemical requirements of the novel -opioid selective dipeptide antagonist TMT-Tic” (Bioorg Med Chem Lett, 1997).

Assays:
[1] = molecular target: Delta-type opioid receptor (Mus musculus, UniProt P32300); experiment: The compound was evaluated for the binding affinity towards delta-opioid receptor by displacement of [3H]p-CI-DPDPE radioligand from mouse vas deferens; assay type: tissue-based
[2] = molecular target: Mu-type opioid receptor (Cavia porcellus, UniProt P97266); experiment: The compound was evaluated for the binding affinity towards mu-opioid receptor by displacement of [3H]DAMGO radioligand from guinea pig ileum; assay type: tissue-based
Mu-type opioid receptor, sequence (P97266 whole entry): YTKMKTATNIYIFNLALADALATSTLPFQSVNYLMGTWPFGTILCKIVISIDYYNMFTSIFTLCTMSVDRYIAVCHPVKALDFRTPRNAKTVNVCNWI

Delta-type opioid receptor, sequence (P32300 whole entry): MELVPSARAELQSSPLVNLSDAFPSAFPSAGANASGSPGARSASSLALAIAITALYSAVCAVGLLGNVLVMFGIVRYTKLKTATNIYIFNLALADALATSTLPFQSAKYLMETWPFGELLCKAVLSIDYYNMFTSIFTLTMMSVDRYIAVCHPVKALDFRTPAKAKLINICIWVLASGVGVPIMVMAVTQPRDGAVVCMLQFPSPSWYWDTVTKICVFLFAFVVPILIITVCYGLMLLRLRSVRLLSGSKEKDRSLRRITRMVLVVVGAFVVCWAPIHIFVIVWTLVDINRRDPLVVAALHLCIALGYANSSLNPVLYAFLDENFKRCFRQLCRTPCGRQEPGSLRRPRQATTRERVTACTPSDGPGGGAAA

`Cc1cc(O)cc(C)c1C(C)C(NC(=O)OC(C)(C)C)C(=O)N1Cc2ccccc2C[C@H]1C(=O)OCc1ccccc1` (some centres not stated) showed an IC50 [1] of 0.019 µM and an IC50 [2] of 8.4 µM.
Work on `Cc1cc(O)cc(C)c1[C@@H](C)[C@@H](N)C(=O)N1Cc2ccccc2C[C@H]1C(=O)O` yielded an IC50 [1] of over 10 µM and an IC50 [2] of over 80 µM.
For `Cc1cc(O)cc(C)c1[C@H](C)[C@@H](N)C(=O)N1Cc2ccccc2C[C@H]1C(=O)O`, the IC50 [1] was over 10 µM and the IC50 [2] was over 80 µM.
With `Cc1cc(O)cc(C)c1[C@@H](C)[C@H](N)C(=O)N1Cc2ccccc2C[C@H]1C(=O)O` the IC50 [1] was 0.0093 µM and the IC50 [2] was 35 µM.
In the case of `Cc1cc(O)cc(C)c1[C@H](C)[C@H](N)C(=O)N1Cc2ccccc2C[C@H]1C(=O)O`, the IC50 [1] is reported as 0.124 µM and the IC50 [2] is reported as over 80 µM.
For `NC(Cc1ccc(O)cc1)C(=O)N1Cc2ccccc2C[C@H]1C(=O)O` (single isomer, unassigned), the Ki [1] was 0.191 µM and the Ki [2] was 28.4 µM.
